Test results taken from patent US20060287353A1, “Method for preventing or treating ischemia-or hemorrhage-induced brain damage using a macrolide compound” (Astellas Pharma Inc., priority 1999, published 2006).

Tests used:
[1] = Immunosuppressive activity (statement, no method described); details: stated in text without test details
[2] = tested on: rat endothelin-induced MCA occlusion model; assay: Neuroprotective efficacy in the rat endothelin-induced MCA occlusion model (ET-1 model of stroke); assay type: in vivo; details: five minutes post-lesion, male Sprague Dawley rats, damage assessed three days post-lesion
Method: Neuroprotective efficacy of the compound (I) in the rat endothelin-induced MCA occlusion model
The compound (I) was dissolved in a polyoxyethylene-hydrogenated castor oil 60/ethanol (400mg/1 ml) solution and administered at 1 and 3 mg.kg^−1. All drugs and relevant control were administered in a volume of 2 ml. kg^−1. MCA occlusion by the endothelin method was performed on male Sprague Dawley rats (271- 324g) as described in U.S. Pat. No. 5,648,351. All drugs were infused through the i.v. catheter at 1 ml min^−1, five minutes post-lesion. The animals were sacrificed by cardiac infusion under barbiturate anaesthesia. Volume of lesion was calculated from measured areas of damage (as assessed three days post-lesion) using the Trapezoid Rule. Results are presented as volume (mm^3)±SEM. Statistical analysis was performed using ANOVA and post hoc Student-Newman-Keuls test, where p<0.05 was set as an acceptable level for significance.

Q: Which results are given for `COC1CC(/C=C(\C)C2OC(=O)C3CCCCN3C(=O)C(=O)C3(O)OC(C(OC)CC(C)C/C(C)=C/C(CC(C)=O)C(=O)CC(O)C2C)C(OC)CC3C)CCC1O` (stereo not drawn) [compound (I)]?
A: immunosuppressive activity [1]: no immunosuppressive activity; protection of the cortex (lesion volume) against vehicle ([2]; 1 mg.kg^-1 i.v., n=14): 61%; protection of the cortex (lesion volume) against vehicle ([2]; 3 mg.kg^-1 i.v., n=9): 42%
